The text below walks through data of publication PMC9369231, “Bile Acid–Drug Interaction via Organic Anion-Transporting Polypeptide 4C1 Is a Potential Mechanism of Altered Pharmacokinetics of Renally Excreted Drugs” (International Journal of Molecular Sciences, 2022).

Common to all, as to type: cell-based
The target of experiment [1] is T1, OATP4C1 (organic anion-transporting polypeptide 4C1) (Homo sapiens, UniProt Q6ZQN7).
T1 construct: gene SLCO4C1; stably expressed in MDCKII cells (G418), butyrate-induced
T1 sequence (Q6ZQN7 1-724): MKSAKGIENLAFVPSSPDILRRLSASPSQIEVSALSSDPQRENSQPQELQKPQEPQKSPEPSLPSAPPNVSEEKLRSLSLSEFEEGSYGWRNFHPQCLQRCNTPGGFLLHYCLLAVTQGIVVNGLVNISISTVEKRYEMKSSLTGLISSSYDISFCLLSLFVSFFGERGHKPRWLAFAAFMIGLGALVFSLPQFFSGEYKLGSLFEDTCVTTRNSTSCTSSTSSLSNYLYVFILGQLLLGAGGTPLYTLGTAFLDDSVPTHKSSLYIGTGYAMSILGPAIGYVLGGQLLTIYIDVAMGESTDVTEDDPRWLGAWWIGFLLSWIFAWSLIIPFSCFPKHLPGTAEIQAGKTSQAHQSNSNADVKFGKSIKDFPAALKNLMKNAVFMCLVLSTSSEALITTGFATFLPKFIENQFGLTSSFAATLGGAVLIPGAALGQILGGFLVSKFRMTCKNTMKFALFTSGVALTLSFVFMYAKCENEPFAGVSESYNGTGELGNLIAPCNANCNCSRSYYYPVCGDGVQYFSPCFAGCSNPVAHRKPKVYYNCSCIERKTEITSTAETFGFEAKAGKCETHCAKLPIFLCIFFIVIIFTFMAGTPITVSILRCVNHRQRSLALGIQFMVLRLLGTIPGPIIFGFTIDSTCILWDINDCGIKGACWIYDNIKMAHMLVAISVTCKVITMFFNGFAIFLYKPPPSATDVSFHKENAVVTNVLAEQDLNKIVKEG
The experiment can be described thus: inhibition of T3 uptake in OATP4C1/MDCKII cells; Ki calculated from IC50 as IC50/([…]+[S]/Km).

Experiment [2] concerns the target T1, OATP4C1 (organic anion-transporting polypeptide 4C1). The experiment can be described thus: inhibition of T3 uptake in OATP4C1/MDCKII cells, LC/MS/MS, mock subtracted. An excerpt: inhibition of T3 uptake in OATP4C1/MDCKII cells, LC/MS/MS, mock subtracted on OATP4C1 (organic anion-transporting polypeptide 4C1)
Experiment [3] shares this target. Described as above. The settings on record: MDCK-II.

The term Ki denotes the equilibrium dissociation constant of an inhibitor or competing ligand from its target. As a reminder, the IC50 is the concentration that gives 50% inhibition. Read a high IC50 as a need for much substance. The term inhibition denotes the percentage by which the read-out fell short of the control. The low end stands for a weak effect, the high end for a strong effect.

Turning to `C[C@H](CCC(=O)NCC(=O)O)[C@H]1CC[C@H]2[C@@H]3CC[C@@H]4C[C@H](O)CC[C@]4(C)[C@H]3CC[C@]12C` [GLCA], the Ki in experiment [1] is 8.46 ± 0.406 µM. Further, in experiment [2], it took 9.9 ± 0.475 µM to reach half-maximal inhibition (IC50). `C[C@H](CCC(=O)NCCS(=O)(=O)O)[C@H]1CC[C@H]2[C@@H]3CC[C@@H]4C[C@H](OS(=O)(=O)O)CC[C@]4(C)[C@H]3C[C@H](O)[C@]12C` [TDCA-3S]: the inhibition at 50 µM in experiment [3] worked out at 49.1%. Regarding `C[C@H](CCC(=O)NCCS(=O)(=O)O)[C@H]1CC[C@H]2[C@@H]3CC[C@@H]4C[C@H](O)CC[C@]4(C)[C@H]3CC[C@]12C` [TLCA], in experiment [1], the Ki is 10.5 ± 0.762 µM. The IC50 in experiment [2] came out at 12.3 ± 0.891 µM. With `C[C@H](CCC(=O)O)[C@H]1CC[C@H]2[C@@H]3CC[C@@H]4C[C@H](O)CC[C@]4(C)[C@H]3CC[C@]12C` [LCA], in experiment [1], the Ki was 5.23 ± 1.03 µM. In experiment [2], this compound returned an IC50 of 6.12 ± 1.21 µM.
